The results in this text go back to patent US20250051344A1, “BIFUNCTIONAL SELECTIVE DEGRADERS OF SMARCA2 AND THERAPEUTIC USES THEREOF” (Nurix Therapeutics, Inc., priority 2023, published 2025).

In one experiment the target is T1, SMARCA2 (Homo sapiens, UniProt P51531).
T1 construct: endogenous in cells
Description: SMARCA2 Cellular Degradation Assay (Western blot analysis on Jess platform). In kind it is cell-based. Particulars: for DC50 / Dmax: cellular degradation; for Fold Selectivity SMARCA4/2: ratio DC50 SMARCA4 / DC50 SMARCA2. In outline: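 Tumor-derived cell pellets (5×10E5-1×10E6 live cells) lysed in RIPA + 0.2% SDS, phosphatase/protease inhibitors, benzonase; 5 μg protein/capillary on Jess; chemiluminescence/fluorescence immunoassay; SMARCA2/actin peak area, % of vehicle.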
In general terms: A western blot detects proteins with antibodies after separation by electrophoresis.

A further experiment has as its target T2, SMARCA4 (Homo sapiens, UniProt P51532).
T2 construct: endogenous in cells
Description: Cellular degradation assay, SMARCA4 (Table 1). Type of experiment: cell-based.

T1 sequence (P51531 whole entry, species assumed): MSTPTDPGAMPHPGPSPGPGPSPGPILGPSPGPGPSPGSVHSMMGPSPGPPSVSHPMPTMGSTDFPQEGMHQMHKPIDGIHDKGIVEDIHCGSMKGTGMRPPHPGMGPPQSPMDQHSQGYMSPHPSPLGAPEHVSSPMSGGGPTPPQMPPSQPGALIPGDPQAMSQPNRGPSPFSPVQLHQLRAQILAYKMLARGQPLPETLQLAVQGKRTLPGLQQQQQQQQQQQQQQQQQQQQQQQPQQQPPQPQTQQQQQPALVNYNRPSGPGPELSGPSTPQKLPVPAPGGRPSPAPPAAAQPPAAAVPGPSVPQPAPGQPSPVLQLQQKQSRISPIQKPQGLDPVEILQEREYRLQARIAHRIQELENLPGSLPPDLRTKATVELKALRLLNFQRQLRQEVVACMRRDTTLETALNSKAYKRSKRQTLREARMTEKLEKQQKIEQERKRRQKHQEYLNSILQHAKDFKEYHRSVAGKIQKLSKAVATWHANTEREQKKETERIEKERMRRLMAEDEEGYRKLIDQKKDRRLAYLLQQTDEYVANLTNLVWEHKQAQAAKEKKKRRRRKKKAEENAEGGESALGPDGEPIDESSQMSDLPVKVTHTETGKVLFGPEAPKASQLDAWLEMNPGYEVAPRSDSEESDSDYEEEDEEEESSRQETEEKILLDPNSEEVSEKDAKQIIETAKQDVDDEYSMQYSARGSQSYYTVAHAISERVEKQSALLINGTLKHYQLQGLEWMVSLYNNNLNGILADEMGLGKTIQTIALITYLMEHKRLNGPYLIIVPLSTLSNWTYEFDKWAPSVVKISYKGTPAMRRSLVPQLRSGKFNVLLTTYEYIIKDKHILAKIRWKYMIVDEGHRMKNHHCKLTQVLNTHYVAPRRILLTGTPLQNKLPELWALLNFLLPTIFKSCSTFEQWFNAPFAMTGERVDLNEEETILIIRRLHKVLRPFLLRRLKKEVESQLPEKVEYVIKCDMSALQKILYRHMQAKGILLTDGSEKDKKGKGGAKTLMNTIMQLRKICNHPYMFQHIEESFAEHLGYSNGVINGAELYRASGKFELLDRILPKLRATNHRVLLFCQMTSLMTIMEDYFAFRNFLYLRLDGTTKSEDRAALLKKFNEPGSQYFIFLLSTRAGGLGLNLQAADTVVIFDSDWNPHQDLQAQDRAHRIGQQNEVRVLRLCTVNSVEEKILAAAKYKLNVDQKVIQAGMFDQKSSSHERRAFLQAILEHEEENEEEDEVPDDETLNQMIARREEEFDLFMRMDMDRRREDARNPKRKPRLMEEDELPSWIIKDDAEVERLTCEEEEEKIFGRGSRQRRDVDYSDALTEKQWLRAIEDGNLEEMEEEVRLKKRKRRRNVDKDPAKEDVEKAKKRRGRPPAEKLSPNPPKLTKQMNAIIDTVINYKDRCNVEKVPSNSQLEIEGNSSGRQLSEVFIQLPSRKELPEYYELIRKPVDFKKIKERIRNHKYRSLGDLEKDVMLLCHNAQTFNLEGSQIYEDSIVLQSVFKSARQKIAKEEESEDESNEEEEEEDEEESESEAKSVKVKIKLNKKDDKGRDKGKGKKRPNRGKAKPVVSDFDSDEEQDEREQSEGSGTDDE
T2 sequence (P51532 whole entry, species assumed): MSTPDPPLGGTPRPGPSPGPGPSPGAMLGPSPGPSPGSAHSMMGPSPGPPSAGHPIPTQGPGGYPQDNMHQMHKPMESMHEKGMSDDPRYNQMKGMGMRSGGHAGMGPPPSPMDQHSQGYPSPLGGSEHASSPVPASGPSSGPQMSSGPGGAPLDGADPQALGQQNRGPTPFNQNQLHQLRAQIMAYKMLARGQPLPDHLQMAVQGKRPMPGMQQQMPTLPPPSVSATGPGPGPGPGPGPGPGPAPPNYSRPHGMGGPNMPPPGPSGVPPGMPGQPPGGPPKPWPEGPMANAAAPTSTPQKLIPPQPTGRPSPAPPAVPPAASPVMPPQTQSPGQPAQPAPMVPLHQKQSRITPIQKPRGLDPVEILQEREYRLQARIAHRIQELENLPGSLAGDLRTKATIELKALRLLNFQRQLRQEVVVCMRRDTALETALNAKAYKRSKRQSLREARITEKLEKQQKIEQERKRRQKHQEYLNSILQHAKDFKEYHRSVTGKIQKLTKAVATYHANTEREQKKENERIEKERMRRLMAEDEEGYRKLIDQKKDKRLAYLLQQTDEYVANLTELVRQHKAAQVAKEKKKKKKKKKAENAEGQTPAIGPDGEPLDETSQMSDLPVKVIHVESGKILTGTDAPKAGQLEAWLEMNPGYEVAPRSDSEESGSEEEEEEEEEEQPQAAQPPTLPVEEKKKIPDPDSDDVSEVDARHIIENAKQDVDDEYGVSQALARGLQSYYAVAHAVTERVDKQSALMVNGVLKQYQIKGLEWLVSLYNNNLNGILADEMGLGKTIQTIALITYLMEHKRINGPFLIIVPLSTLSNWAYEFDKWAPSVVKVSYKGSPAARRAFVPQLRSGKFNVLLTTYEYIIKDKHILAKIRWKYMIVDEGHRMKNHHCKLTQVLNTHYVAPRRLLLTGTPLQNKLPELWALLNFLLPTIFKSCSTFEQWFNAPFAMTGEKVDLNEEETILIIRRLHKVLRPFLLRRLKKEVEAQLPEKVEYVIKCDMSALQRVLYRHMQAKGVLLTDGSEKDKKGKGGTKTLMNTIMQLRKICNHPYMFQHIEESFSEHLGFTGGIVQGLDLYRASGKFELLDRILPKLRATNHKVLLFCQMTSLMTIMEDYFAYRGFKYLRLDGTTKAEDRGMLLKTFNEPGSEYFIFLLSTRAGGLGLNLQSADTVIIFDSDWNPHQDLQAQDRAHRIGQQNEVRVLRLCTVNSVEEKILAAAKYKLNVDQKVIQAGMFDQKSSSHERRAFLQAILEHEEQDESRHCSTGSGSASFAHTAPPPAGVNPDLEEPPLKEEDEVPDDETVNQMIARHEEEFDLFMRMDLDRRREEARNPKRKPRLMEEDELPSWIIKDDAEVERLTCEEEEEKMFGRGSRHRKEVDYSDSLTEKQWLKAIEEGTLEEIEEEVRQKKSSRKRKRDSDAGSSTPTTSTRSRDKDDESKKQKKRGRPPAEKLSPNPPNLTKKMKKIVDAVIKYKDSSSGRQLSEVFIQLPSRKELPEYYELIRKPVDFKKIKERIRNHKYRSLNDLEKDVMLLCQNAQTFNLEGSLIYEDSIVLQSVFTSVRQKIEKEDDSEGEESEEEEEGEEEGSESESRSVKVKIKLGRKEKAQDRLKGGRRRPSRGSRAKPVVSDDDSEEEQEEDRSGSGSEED

`CN(CC1(c2ccccc2)CCN(c2cnnc(-c3ccccc3O)c2)CC1)C1CCN(C(=O)CN2CCC(c3ccc(C4CCC(=O)NC4=O)cc3)CC2)CC1` (racemic) [Example 143, rac-(r)-3-(4-(1-(2-(4-(((1-(6-(2-hydroxyphenyl)pyridazin-4-yl)-4-phenylpiperidin-4-yl)methyl)(methyl)amino)piperidin-1-yl)-2-oxoethyl)piperidin-4-yl)phenyl)piperidine-2,6-dione]: on SMARCA2, half-maximal degradation (DC50) was put at 13.3 nM, the Dmax (commonly the greatest extent of degradation seen) stood at 86.5% and the “Fold Selectivity SMARCA4/2” value was found to be 12. For the same molecule, on SMARCA4, half-maximal degradation (DC50) was put at 161 nM and the Dmax turned out to be 66.7%.

Regarding `O=C1CCC(c2ccc(N3CCC(CN4CC5(C4)CN(CC4(c6ccccc6)CCN(c6cnnc(-c7ccccc7O)c6)CC4)C5)CC3)cc2)C(=O)N1` (racemic) [Example 44, rac-(3R)-3-[4-(4-{[6-({-[6-(2-hydroxyphenyl)pyridazin-4-yl]-4-phenylpiperidin-4-yl}methyl)-2,6-diazaspiro[3.3]heptan-2-yl]methyl}piperidin-1-yl)phenyl]piperidine-2,6-dione], on SMARCA2, it took 6.22 nM to reach half-maximal degradation (DC50), the Dmax came to 86.6% and the “Fold Selectivity SMARCA4/2” value was 3.95. Also, on SMARCA4, half-maximal degradation (DC50) was put at 24.6 nM and the Dmax amounted to 77.5%.

Take `CC(C)c1cc(C2(C(=O)N3CC4(CN(CC5CCN(c6ccc(C7CCC(=O)NC7=O)cc6)CC5)C4)C3)CCN(c3cnnc(-c4ccccc4O)c3)CC2)no1` (racemic) [Example 92, rac-(3R)-3-(4-{4-[(6-{1-[6-(2-hydroxyphenyl)pyridazin-4-yl]-4-[5-(propan-2-yl)-1,2-oxazol-3-yl]piperidine-4-carbonyl}-2,6-diazaspiro[3.3]heptan-2-yl)methyl]piperidin-1-yl}phenyl)piperidine-2,6-dione]: at SMARCA2, the DC50 – broadly, the midpoint of the concentration-degradation curve – turned out to be 4.81 nM; the Dmax turned out to be 80.8%; the “Fold Selectivity SMARCA4/2” value stood at 19. At SMARCA4, this molecule registered a DC50 of 92.5 nM and a Dmax of 50.2%.

Regarding `O=C1CC[C@H](c2ccc(N3CCC(CN4CCCC4C4CCCCN4C(=O)C4(c5ccccc5)CCN(c5cnnc(-c6ccccc6O)c5)CC4)CC3)cc2)C(=O)N1` (stereo partly drawn) [Example 42, (3R)-3-[4-(4-{[2-(1-{1-[6-(2-hydroxyphenyl)pyridazin-4-yl]-4-phenylpiperidine-4-carbonyl}piperidin-2-yl)pyrrolidin-1-yl]methyl}piperidin-1-yl)phenyl]piperidine-2,6-dione], the figures for the Dmax on SMARCA2 and on SMARCA4 were 28.7% and 9.32%, respectively. For the same molecule, the “Fold Selectivity SMARCA4/2” value on SMARCA2 is given as 1.

On to `C[C@H]1C[C@H](NC(=O)C2(c3ccccc3)CCN(c3cnnc(-c4ccccc4O)c3)CC2)CCN1C(=O)CN1CCC(c2ccc([C@H]3CCC(=O)NC3=O)cc2)CC1` (racemic) [Example 76, n-((2s,4r)-1-(2-(4-(4-((rs)-2,6-dioxopiperidin-3-yl)phenyl)piperidin-1-yl)acetyl)-2-methylpiperidin-4-yl)-1-(6-(2-hydroxyphenyl)pyridazin-4-yl)-4-phenylpiperidine-4-carboxamide], for which, on SMARCA2, the 50% degradation concentration (DC50) turned out to be 9.53 nM, the maximal degradation (Dmax) was determined as 83.5% and the “Fold Selectivity SMARCA4/2” value is on record as 1049. Also, the Dmax on SMARCA4 is 24.7%.

On to `CN(C(=O)C1(c2ccccc2)CCN(c2cnnc(-c3ccccc3O)c2)CC1)C1CCN(CC2CCN(c3ccc([C@H]4CCC(=O)NC4=O)cc3)CC2)C2(CCCCC2)C1` (mixture of isomers) [Example 153, N-[(4RS)-1-[(1-{4-[(3R)-2,6-dioxopiperidin-3-yl]phenyl}piperidin-4-yl)methyl]-1-azaspiro[5.5]undecan-4-yl]-1-[6-(2-hydroxyphenyl)pyridazin-4-yl]-N-methyl-4-phenylpiperidine-4-carboxamide], for which, at SMARCA2, the DC50 came to 10.3 nM, the Dmax was 92.2% and the “Fold Selectivity SMARCA4/2” value was 5. Also, on SMARCA4, the half-maximal degradation concentration (DC50) came to 47.5 nM and the Dmax is 86.2%.

`O=C1CCC(c2ccc(N3CCC(CN4CC5(C4)CN(C(=O)C4(Cc6ccccc6)CCN(c6cnnc(-c7ccccc7O)c6)CC4)C5)CC3)cc2)C(=O)N1` (racemic) [Example 26, rac-(3R)-3-(4-{4-[(6-{4-benzyl-1-[6-(2-hydroxyphenyl)pyridazin-4-yl]piperidine-4-carbonyl}-2,6-diazaspiro[3.3]heptan-2-yl)methyl]piperidin-1-yl}phenyl)piperidine-2,6-dione]: the Dmax came out at 14.1% on SMARCA2 and 14.6% on SMARCA4. Moreover, the “Fold Selectivity SMARCA4/2” value on SMARCA2 came out at 1.

With `O=C1CC[C@H](NC(=O)c2ccc(N3CCC(CN4CCC(NC(=O)C5(c6ccccc6)CCN(c6cnnc(-c7ccccc7O)c6)CC5)CC4)CC3)nc2)C(=O)N1` [Example 156, N-[(3S)-2,6-dioxopiperidin-3-yl]-6-{4-[(4-{l-[6-(2-hydroxyphenyl)pyridazin-4-yl]-4-phenylpiperidine-4-amido}piperidin-1-yl)methyl]piperidin-1-yl}pyridine-3-carboxamide], at SMARCA2, it took 38.5 nM to reach half-maximal degradation (DC50), the Dmax was determined as 63.2% and the “Fold Selectivity SMARCA4/2” value amounted to 260. The same molecule had a Dmax on SMARCA4 of 36%.

Take `O=C1CCC(c2ccc(N3CCN(C(=O)CC4CCN(C(=O)C5(c6ccccc6)CCN(c6cnnc(-c7ccccc7O)c6)CC5)CC4)CC3)cc2)C(=O)N1` (racemic) [Example 18, rac-(3R)-3-(4-{4-[2-(1-{1-[6-(2-hydroxyphenyl)pyridazin-4-yl]-4-phenylpiperidine-4-carbonyl}piperidin-4-yl)acetyl]piperazin-1-yl}phenyl)piperidine-2,6-dione]: on SMARCA2, the Dmax amounted to 44.1% and the “Fold Selectivity SMARCA4/2” value is listed as 1. Further, at SMARCA4, the maximal degradation (Dmax) amounted to 27.7%.

For the molecule `CC1(C(=O)N2CCN(c3ccc(C4CCC(=O)NC4=O)cc3)CC2)CCN(C(=O)C2(c3ccccc3)CCN(c3cnnc(-c4ccccc4O)c3)CC2)CC1` (racemic) [Example 21, rac-(3R)-3-{4-[4-(1-{1-[6-(2-hydroxyphenyl)pyridazin-4-yl]-4-phenylpiperidine-4-carbonyl}-4-methylpiperidine-4-carbonyl)piperazin-1-yl]phenyl}piperidine-2,6-dione], the Dmax was determined as 32% on SMARCA2 and 19.3% on SMARCA4. In addition, the “Fold Selectivity SMARCA4/2” value on SMARCA2 stood at 1.
